Results as given in ChEMBL document CHEMBL1156716, “Selenium containing heterocycles: synthesis, anti-inflammatory, analgesic and anti-microbial activities of some new 4-cyanopyridazine-3(2H)selenone derivatives” (Eur J Med Chem, 2008).

Tests used:
Mus musculus [1] = assay: Analgesic activity in albino mouse assessed as effect on […] at 10 mg/kg, ip after 1 hrs by hot plate test; type: functional; details: route intraperitoneal
Mus musculus [2] = assay: Analgesic activity in albino mouse assessed as effect on […] at 10 mg/kg, ip after 2 hrs by hot plate test; type: functional; details: route intraperitoneal
Rattus norvegicus [3] = assay: Antiinflammatory activity in albino rat assessed as inhibition of carrageenan-induced paw edema at 10 mg/kg, ip after 4 hrs; type: functional; details: route intraperitoneal
Rattus norvegicus [4] = assay: Antiinflammatory activity in albino rat assessed as inhibition of carrageenan-induced paw edema at 10 mg/kg, ip after 2 hrs; type: functional; details: route intraperitoneal
Mus musculus [5] = assay: Analgesic activity in albino mouse assessed as effect on […] at 10 mg/kg, ip after 5 hrs by hot plate test; type: functional; details: route intraperitoneal
Rattus norvegicus [6] = assay: Antiinflammatory activity in albino rat assessed as inhibition of carrageenan-induced paw edema at 10 mg/kg, ip after 5 hrs; type: functional; details: route intraperitoneal
Rattus norvegicus [7] = assay: Antiinflammatory activity in albino rat assessed as inhibition of carrageenan-induced paw edema at 10 mg/kg, ip after 1 hrs; type: functional; details: route intraperitoneal
Mus musculus [8] = assay: Analgesic activity in albino mouse assessed as effect on […] at 10 mg/kg, ip after 4 hrs by hot plate test; type: functional; details: route intraperitoneal
Mus musculus [9] = assay: Analgesic activity in albino mouse assessed as effect on […] at 10 mg/kg, ip after 3 hrs by hot plate test; type: functional; details: route intraperitoneal
Rattus norvegicus [10] = assay: Antiinflammatory activity in albino rat assessed as inhibition of carrageenan-induced paw edema at 10 mg/kg, ip after 3 hrs; type: functional; details: route intraperitoneal
Rattus norvegicus [11] = assay: Antiinflammatory activity in albino rat assessed as inhibition of carrageenan-induced paw edema at 10 mg/kg, ip after 0.5 hrs; type: functional; details: route intraperitoneal
Mus musculus [12] = assay: Analgesic activity in albino mouse assessed as effect on […] at 10 mg/kg, ip after 0.5 hrs by hot plate test; type: functional; details: route intraperitoneal
Mus musculus [13] = assay: Acute toxicity in ip dosed albino mouse upto 250 mg/kg after 72 hrs; type: organism-based; design: dose 250 mg/kg, route intraperitoneal; details: in vivo

Row | Compound | Activity (Mus musculus [1]) [%] | Activity (Mus musculus [2]) [%] | inhibition in vivo at 10 mg/kg (Rattus norvegicus [3]) [%] | inhibition in vivo at 10 mg/kg (Rattus norvegicus [4]) [%] | Activity (Mus musculus [5]) [%] | inhibition in vivo at 10 mg/kg (Rattus norvegicus [6]) [%] | inhibition in vivo at 10 mg/kg (Rattus norvegicus [7]) [%] | Activity (Mus musculus [8]) [%] | Activity (Mus musculus [9]) [%] | inhibition in vivo at 10 mg/kg (Rattus norvegicus [10]) [%] | inhibition in vivo at 10 mg/kg (Rattus norvegicus [11]) [%] | Activity (Mus musculus [12]) [%] | Activity (Mus musculus [13])
1 | N#CC1=C(N)C2=C(c3ccccc3)C(c3ccccc3)=NNC2[Se]1 (centres undefined) | 77.9 | 75.5 | 36.1 | 29.4 | 65.3 | 44.4 | 9.9 | 75.5 | 79.8 | 29.4 | 8.8 | 67.9 | 
2 | NC1=C(C(=O)c2ccccc2)[Se]C2NN=C(c3ccccc3)C(c3ccccc3)=C12 (centres undefined) | 27.1 | 30.6 | 35.5 | 26.4 | 24.2 | 38.8 | 9 | 31.9 | 36.5 | 29.4 | 9 | 25.2 | 
3 | O=C1NC2(CCCCC2)NC2=C1[Se]C1NN=C(c3ccccc3)C(c3ccccc3)=C21 (centres undefined) |  |  | 30.5 | 23.5 |  | 38.8 | 9.9 |  |  | 23.5 | 8.7 |  | 
4 | N#Cc1c(-c2ccccc2)c(-c2ccccc2)n[nH]c1=[Se] |  |  | 30.5 | 20.5 |  | 30.5 | 17.2 |  |  | 23.5 | 8.8 |  | 
5 | NC(=O)C1=C(N)C2=C(c3ccccc3)C(c3ccccc3)=NNC2[Se]1 (centres undefined) | 97.8 | 99.4 | 47.2 | 26.4 | 83.4 | 50 | 14.7 | 90.5 | 98.4 | 44.4 | 8.7 | 90.3 | Non-toxic
6 | CCOC(=O)C1=C(N)C2=C(c3ccccc3)C(c3ccccc3)=NNC2[Se]1 (centres undefined) | 42.8 | 39.8 | 41.6 | 23.5 | 33.4 | 44.4 | 17.2 | 39.6 | 41.3 | 35.2 | 8.8 | 21.6 | 
7 | CC(=O)C1=C(N)C2=C(c3ccccc3)C(c3ccccc3)=NNC2[Se]1 (centres undefined) |  |  | 28.5 | 20.5 |  | 33.5 | 17.2 |  |  | 20.5 | 8.8 |  | 
8 | CC(=O)Oc1ccccc1C(=O)O [ASPIRIN] | 58.9 | 50.5 |  |  | 30.01 |  |  | 39.2 | 45.6 |  |  | 36.2 | 
9 | COc1ccc2c(c1)c(CC(=O)O)c(C)n2C(=O)c1ccc(Cl)cc1 [INDOMETHACIN] |  |  | 52.7 | 32.3 |  | 57.5 | 20.5 |  |  | 44.1 | 11.7 |  | 
